Patent US20260226025A1, “PHARMACEUTICALLY ACCEPTABLE SALT AND CRYSTAL FORM OF TRIAZOLE COMPOUND, AND PREPARATION METHOD THEREFOR” (JIANGSU HENGRUI PHARMACEUTICALS CO., LTD., priority 2023, published 2026)

Target: T1, hLPAR1 (human lysophosphatidic acid receptor 1) (Homo sapiens, UniProt Q92633)
T1 construct: host or cells: CHO-K1 (CHO-K1/LPA1R, cultured under hygromycin B selection)
Assay: FLIPR antagonist property test: LPA-induced intracellular calcium elevation in CHO-K1/LPA1R cells
Type: cell-based
Conditions: hLPAR1 expressed in CHO-K1 cells, LPA at EC80, read-out: LPAR1 IC50
Experimental: The antagonist properties of a compound of the present disclosure were assessed using the FLIPR (fluorometric imaging plate reader) method. The compound is an inhibitor of intracellular calcium elevation induced by activation of hLPAR1 (human lysophosphatidic acid receptor 1) expressed in CHO-K1 cells (Chinese hamster ovary K1 cells, HDB). • 1. Experimental reagents and instrument consumables
• 2. Reagent preparation • 2.1. Reaction buffer: HBSS+20 mM HEPES+0.1% fatty acid-free BSA+0.001% F-127 • 2.2. 50× Red dye: (a red dye for blocking background signals in cells) prepared by: weighing out 4 g of tartrazine and 10.2 g of acid red and dissolving them in 100 mL of H2O. • 2.3. Fluo-8 staining mixture: 4 mL of reaction buffer, 32 μL of fluo-8, 320 μL of 50× Red dye, and 40 μL of probenecid. • 3. Compound preparation • 3.1. […] When the cells became round, the digestion was stopped with culture medium F-12 (10% FBS), and the cells were counted. […] An FLIPR was correspondingly programmed, the 6×LPA gradient solutions were added, and readings were taken. […] A reaction curve was obtained from the numerical values of LPA, and the concentration of LPA at EC80 was calculated. […] An FLIPR was correspondingly programmed, the 6×LPA solution was added, and readings were taken. […] Finally, the output fluorescence counts were analyzed, and the IC50 of the compound was calculated. • 5. […]

T1 sequence (Q92633 whole entry): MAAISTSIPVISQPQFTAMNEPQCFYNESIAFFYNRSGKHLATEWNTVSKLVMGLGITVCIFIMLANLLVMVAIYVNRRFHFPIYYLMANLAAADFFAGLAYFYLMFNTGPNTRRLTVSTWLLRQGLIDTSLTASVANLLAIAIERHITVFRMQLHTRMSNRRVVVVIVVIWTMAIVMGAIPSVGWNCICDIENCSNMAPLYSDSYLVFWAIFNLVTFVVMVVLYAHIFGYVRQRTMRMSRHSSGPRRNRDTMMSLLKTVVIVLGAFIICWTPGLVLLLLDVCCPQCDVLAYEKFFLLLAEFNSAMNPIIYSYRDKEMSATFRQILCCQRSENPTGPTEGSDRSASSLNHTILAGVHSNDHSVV

IC50: 8.7 nM
SMILES: COCc1ccnc(OCc2c(-c3ccc(O[C@H]4C[C@@H]5CC[C@H](C(=O)O)[C@@H]5C4)c(C)n3)nnn2C)n1 [Compound 1-P1, (1S,3aS,5S,6aR)-5-((6-(5-(((4-(methoxymethyl)pyrimidin-2-yl)oxy)methyl)-1-methyl-1H-1,2,3-triazol-4-yl)-2-methylpyridin-3-yl)oxy) octahydropentalene-1-carboxylic acid]
